These results are taken from patent publication US20100210816A1, “NMDAR Biomarkers for Diagnosing and Treating Cerebral Ischemia” (priority 2006, published 2010).

For assay [1], the system named is NR2 antibodies. In words: NR2 antibody monitoring in three patients (minor CVA, TIA, ischemic stroke) given oral Trental. Format: in vivo, human. As for the experimental part: The first case was a non-smoker who had previously undergone valve replacement surgery in 1987 and had received a coronary artery stent in 2002. The patient had been treated with coumudin since the first surgery. NR2 antibodies measured at base line were […] the 2 ng/ml cutoff. (FIG. 1). […] At the same time, the patient had complaints on chronic fatigue and numbness in the 4th and 5th digits of their left arm lasting quite a long period of time. […] Antibodies continued to decrease up to 6th mo. after treatment was initiated and remained below the cut off level more than 1 year after therapy.
The second patient was a apparently healthy person. Their blood assay for NR2 antibodies was performed initially on a voluntary basis as a healthy control. […] The patient used Plavix and Lipitor on daily basis as well.
The third patient was an non-smoker who had suffered ischemic stroke on May 28-29, 2002 after angioplasty. They had receiving coumadin, eardizem, atenolol, hytrin, lasix, and guaifinex when they entered the study.

The conditions of assay [2]: acute ischemic stroke; non-significant reduction; 95% CI: 0.41, 1.02; cited from earlier work.
Assay [3] is described as follows: TIA rate over 24 months of aspirin treatment follow up in individuals with DM/AS. Format: in vivo, human. Conditions: 24 months follow up. As for the experimental part: (§1) In this study, serial measurements of blood levels of NR2 antibodies in an out-patient setting in individuals with diabetes mellitus (DM) and atherosclerosis (AS) who are at high risk for subsequent CVA were evaluated to establish whether this biomarker can be used to monitor the efficacy of aspirin treatment. Every person who participated in the study underwent neurological examination and computed tomography (CT) of the brain. The age of the 33 persons (17 male/16 female) ranged from 47-64 yrs (mean 55.7 yrs). Patients with documented 5-10 year history of DM/AS and normal neurological examination without a previous history of neurological event such as transient ischemic attack (TIA), or prolonged reversible ischemic neurological deficit or stroke were observed. Based on laboratory and clinical testing, all participants were at borderline glucose intolerance, with blood glucose levels of 119 to 132 mg/dL, and had complaints on fatigue, low concentration of attention, and numbness in digits of left or right hand.
Out of 22 individuals, 10 (6 male/4 female) were randomly assigned to a placebo group and the rest used daily over-counter aspirin in a dose of 325 mg which formed group 1 (Table 3). […]
NR2 antibodies were detected at a base level for each group before treatment was initiated (0 mo.) and then each following 6 months for two years. […]

For assay [4] the following is noted: large meta-analysis, BMJ 1994; cited from earlier work.
The test system of assay [5] is NR2 antibodies. In words: Serial blood NR2 antibody levels over 24 months of aspirin treatment follow up in individuals with DM/AS at high risk for CVA. As to conditions: for NR2 antibodies, 6 mo.: 6 months; for NR2 antibodies, 0 mo.: base level before treatment. Format: in vivo, human. The protocol: as §1
Out of 22 individuals, 10 (6 male/4 female) were randomly assigned to a placebo group and the rest used daily over-counter aspirin in a dose of 325 mg which formed group 1 (Table 3). None of people of group 1 developed the resistance to aspirin.
NR2 antibodies were detected at a base level for each group before treatment was initiated (0 mo.) and then each following 6 months for two years. […] A TIA event was documented in 1 patient from the placebo group. […] By the end of the study at 24 mo., two out of 9 persons suffered a TIA which developed into an acute ischemic stroke in one patient.

The conditions of assay [6]: patients with TIA or minor CVA; cited from earlier work.
Where [7] appears, read: Group 1 (not aspirin-resistant, N=12), aspirin 325 mg daily.
The mark [8] stands for this setting: Group 2 (resistant to aspirin, N=9), aspirin 325 mg/day.

`CC(=O)CCCCn1c(=O)c2c(ncn2C)n(C)c1=O` [Trental, pentoxifylline]: the “Effect on level of NR2 antibodies” value is reported as “reduced the level of NR2 antibodies to the control level of healthy individuals” in the assay with NR2 antibodies [1] (person after TIA, oral 200 mg twice a day for 30 days, FIG. 2); “reduced the level of NR2 antibodies to the cut off” in the assay on NR2 antibodies [1] (person after ischemic stroke, oral 200 mg x 3 times a day for 60 days, FIG. 3); “reduced the level of NR2 antibodies by the end of treatment” in the assay with NR2 antibodies [1] (person, minor CVA, oral 200 mg twice a day for 30 days, FIG. 1). Besides, in assay [2], the “Odds ratio of early death” value is 0.64.

In the case of `CC(=O)Oc1ccccc1C(=O)O` [aspirin], the TIA rate in assay [3] (setting [7]) was 0; in assay [3] (setting [8]) it was 2/9. The “Reduction of incidence of stroke, myocardial infarction, or vascular death” value in assay [4] is 25%. Besides, the “NR2 antibodies, 6 mo.” value turned out to be 2.51 ± 0.28 ng/mL in the assay with NR2 antibodies [5] (setting [7]) and 3.22 ± 0.30 ng/mL in the assay with NR2 antibodies [5] (setting [8]). The figures for the “NR2 antibodies, 0 mo.” value with NR2 antibodies [5] (setting [7]) and with NR2 antibodies [5] (setting [8]) were 3.05 ± 0.21 ng/mL and 2.87 ± 0.11 ng/mL, respectively. In addition, the “Change of NR2 antibody levels” value is given as “significantly reduced” in the assay on NR2 antibodies [5] (Group 1, aspirin 325 mg daily, below cut off of 2 ng/ml, no CVA consequences) and “no improvement in NR2 antibodies levels” in the assay with NR2 antibodies [5] (Group 2, patients resistant to aspirin, any time during the study). Also, the “Reduction of the risk of TIA” value in assay [6] is 20%.
